# According to ChEMBL document CHEMBL1201862, “PubChem BioAssay data set” (2004):
#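 A five-concentration, 48-hour dose response in 96-well plates underlies each endpoint, interpolated linearly between surrounding concentrations. The concentration for 50% growth inhibition is given as GI50.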 The source made the active and inactive calls. No stated cut-off is given here; in the data, active = GI50 up to about 1.1 µM and inactive = higher.
# Columns and labels:
# Test in all cases: NCI anticancer screen, dose series, 48 h
# [1] = system: NCI-H460
# [2] = system: SK-OV-3
# [3] = system: K562
# [4] = system: Malme-3M
# [5] = system: A549
# [6] = system: HL-60
# [7] = system: OVCAR-8
# [8] = system: U-251
# [9] = system: SK-MEL-5
# [10] = system: SR
# [11] = system: NCI/ADR-RES
# [12] = system: 786-0
# [13] = system: SNB-78
# [14] = system: HCT-15
# [15] = system: HOP-62
# [16] = system: HOP-18
# [17] = system: NCI-H226
# [18] = system: NCI-H522
# [19] = system: OVCAR-3
# [20] = system: SF-268
# [21] = system: OVCAR-5
# [22] = system: A498
# [23] = system: HOP-92
# [24] = system: KM-20L2
# [25] = system: IGROV-1
# [26] = system: HCT-116
# [27] = system: RXF 393
# [28] = system: SN12C
# [29] = system: UACC-62
# [30] = system: MCF7
# [31] = system: DMS-114
# [32] = system: EKVX
# [33] = system: M19-MEL
# [34] = system: SNB-19
# [35] = system: DMS-273
# [36] = system: SK-MEL-2
# [37] = system: SK-MEL-28
# [38] = system: SW-620
# [39] = system: SNB-75
# [40] = system: UACC-257
# [41] = system: DLD-1
# [42] = system: HT-29
# [43] = system: XF498
# [44] = system: SF-295
# [45] = system: LOX IMVI
# [46] = system: OVCAR-4
# [47] = system: CAKI-1
# [48] = system: UO-31
# [49] = system: HCC 2998
# [50] = system: LXFL 529
# [51] = system: RPMI-8226
# [52] = system: CCRF-CEM
# [53] = system: RXF 631
# [54] = system: SF-539
# [55] = system: NCI-H23
# [56] = system: MOLT-4
# [57] = system: COLO 205
# [58] = system: KM12
# [59] = system: M14
# [60] = system: TK-10
# [61] = system: ACHN
smiles,measurement,setting,value
CNC(=O)OCc1nc(SC2CCCCO2)n(C)c1COC(=O)NC (centres undefined),GI50,[1],> 100 µM (inactive)
same,GI50,[2],> 100 µM (inactive)
same,GI50,[3],> 100 µM (inactive)
same,GI50,[4],> 100 µM (inactive)
same,GI50,[5],> 100 µM (inactive)
same,GI50,[6],> 100 µM (inactive)
same,GI50,[7],> 100 µM (inactive)
same,GI50,[8],> 100 µM (inactive)
same,GI50,[9],> 100 µM (inactive)
same,GI50,[10],> 100 µM (inactive)
same,GI50,[11],> 100 µM (inactive)
same,GI50,[12],> 100 µM (inactive)
same,GI50,[13],> 100 µM (inactive)
same,GI50,[14],> 100 µM
same,GI50,[15],> 100 µM (inactive)
same,GI50,[16],> 100 µM (inactive)
same,GI50,[17],> 100 µM (inactive)
same,GI50,[18],> 100 µM (inactive)
same,GI50,[19],> 100 µM (inactive)
same,GI50,[20],> 100 µM (inactive)
same,GI50,[21],> 100 µM (inactive)
same,GI50,[22],> 100 µM (inactive)
same,GI50,[23],> 100 µM (inactive)
same,GI50,[24],> 100 µM (inactive)
same,GI50,[25],> 100 µM (inactive)
same,GI50,[26],> 100 µM (inactive)
same,GI50,[27],> 100 µM (inactive)
same,GI50,[28],> 100 µM (inactive)
same,GI50,[29],> 100 µM (inactive)
same,GI50,[30],> 100 µM (inactive)
same,GI50,[31],> 100 µM (inactive)
same,GI50,[32],> 100 µM (inactive)
same,GI50,[33],> 100 µM (inactive)
same,GI50,[34],> 100 µM (inactive)
same,GI50,[35],> 100 µM (inactive)
same,GI50,[36],> 100 µM (inactive)
same,GI50,[37],> 100 µM (inactive)
same,GI50,[38],> 100 µM (inactive)
same,GI50,[39],> 100 µM (inactive)
same,GI50,[40],> 100 µM (inactive)
same,GI50,[41],> 100 µM (inactive)
same,GI50,[42],> 100 µM (inactive)
same,GI50,[43],> 100 µM (inactive)
same,GI50,[44],> 100 µM (inactive)
same,GI50,[45],> 100 µM (inactive)
same,GI50,[46],> 100 µM (inactive)
same,GI50,[47],> 100 µM (inactive)
same,GI50,[48],> 100 µM (inactive)
same,GI50,[49],> 100 µM (inactive)
same,GI50,[50],> 100 µM (inactive)
same,GI50,[51],> 100 µM (inactive)
same,GI50,[52],> 100 µM (inactive)
same,GI50,[53],> 100 µM (inactive)
same,GI50,[54],> 100 µM (inactive)
same,GI50,[55],> 100 µM (inactive)
same,GI50,[56],> 100 µM (inactive)
same,GI50,[57],> 100 µM (inactive)
same,GI50,[58],> 100 µM (inactive)
same,GI50,[59],> 100 µM (inactive)
CC1CC(C)C(=O)C(C(=O)CC2CC(=O)NC2=O)C1 (centres undefined),GI50,[1],> 100 µM (inactive)
same,GI50,[2],> 100 µM (inactive)
same,GI50,[3],> 100 µM (inactive)
same,GI50,[4],> 100 µM (inactive)
same,GI50,[5],> 100 µM (inactive)
same,GI50,[6],> 100 µM (inactive)
same,GI50,[7],> 100 µM (inactive)
same,GI50,[8],> 100 µM (inactive)
same,GI50,[10],> 100 µM (inactive)
same,GI50,[12],> 100 µM (inactive)
same,GI50,[13],> 100 µM (inactive)
same,GI50,[15],> 100 µM (inactive)
same,GI50,[16],> 100 µM (inactive)
same,GI50,[17],> 100 µM (inactive)
same,GI50,[18],> 100 µM (inactive)
same,GI50,[19],> 100 µM (inactive)
same,GI50,[20],> 100 µM (inactive)
same,GI50,[21],> 100 µM (inactive)
same,GI50,[22],> 100 µM (inactive)
same,GI50,[23],> 100 µM (inactive)
same,GI50,[24],> 100 µM (inactive)
same,GI50,[25],> 100 µM (inactive)
same,GI50,[26],> 100 µM (inactive)
same,GI50,[27],> 100 µM (inactive)
same,GI50,[28],> 100 µM (inactive)
same,GI50,[29],> 100 µM (inactive)
same,GI50,[31],> 100 µM (inactive)
same,GI50,[32],> 100 µM (inactive)
same,GI50,[33],> 100 µM (inactive)
same,GI50,[34],> 100 µM (inactive)
same,GI50,[35],> 100 µM (inactive)
same,GI50,[37],> 100 µM (inactive)
same,GI50,[60],> 100 µM (inactive)
same,GI50,[38],> 100 µM (inactive)
same,GI50,[39],> 100 µM (inactive)
same,GI50,[40],> 100 µM (inactive)
same,GI50,[41],> 100 µM (inactive)
same,GI50,[42],> 100 µM (inactive)
same,GI50,[43],> 100 µM (inactive)
same,GI50,[61],> 100 µM (inactive)
same,GI50,[44],> 100 µM (inactive)
same,GI50,[45],> 100 µM (inactive)
same,GI50,[46],> 100 µM (inactive)
same,GI50,[47],> 100 µM (inactive)
same,GI50,[48],> 100 µM (inactive)
same,GI50,[49],> 100 µM (inactive)
same,GI50,[50],> 100 µM (inactive)
same,GI50,[51],> 100 µM (inactive)
same,GI50,[52],> 100 µM (inactive)
same,GI50,[53],72.6 µM (inactive)
same,GI50,[54],> 100 µM (inactive)
same,GI50,[55],> 100 µM (inactive)
same,GI50,[57],> 100 µM (inactive)
same,GI50,[58],> 100 µM (inactive)
same,GI50,[59],> 100 µM (inactive)
